The source of these data is US9463188B2, “Osteopontin production inhibitor containing dictyopyrone derivative or dihydrodictyopyrone derivative as active ingredient” (TOHOKU UNIVERSITY, priority 2013, dated 2016).

The test system of experiment [1] is human OPN promoter (pOPN1-luc) in A549/OPNluc cells. Description: Luciferase assay: luciferase expression under control of OPN promoter. To be noted: for EC50 value relative to respective IC50 value: EC50 luciferase assay vs IC50 WST assay; for EC50: Homo sapiens, 48±4 hours, read-out: EC50 (concentration for 50% inhibition of luciferase expression under control of OPN promoter). It counts as cell-based. An excerpt: (§1) A reporter vector pOPN1-luc obtained by inserting a human OPN promoter sequence (−765 to 23) into the multiple cloning site of pGL-3 basic vector (Promega) expresses luciferase when transfected into animal cells. This pOPN1-luc was transfected into a human non-small cell lung cancer-derived cell line A549 together with pPUR (Clontech) that expresses a puromycin resistance gene (puromycin-N-acetyl-transferase gene), and cells that could grow in a puromycin-supplemented medium and expressed luciferase were selected. The selected cells were named A549/OPNluc cells and used for observation of luciferase expression inhibitory effect under control of OPN promoter, as described later.
(§2) A test compound was added to a culture liquid containing A549/OPNluc cells to observe its influence on the amount of luciferase expressed in the cells. Here, it can be considered that when the test compound has cytotoxity or cell growth-suppressing effect, the total expression level of luciferase is reduced due to a reduction in the number of living cells that depends on the concentration of the test compound, and therefore the luciferase expression inhibitory effect of the test compound under control of OPN promoter cannot be properly evaluated. For this reason, WST assay for quantification of cell proliferation ability or cell viability by colorimetric measurement was first performed to determine IC50 (concentration for 50% inhibition of cell growth) of the test compound for cell growth. Then, luciferase activity measurement was performed to determine EC50 (concentration for 50% inhibition of luciferase expression) of the test compound for luciferase expression under control of OPN promoter.
The same steps as in the above-described WST assay were performed in which only DMSO (control) or the diluted test compound (sample) solution was added in an amount of 0.5 μL to each well containing the cell suspension to achieve 200-fold dilution, and the solution in each well was mixed with a vortex mixer, and the 96-well plate was incubated in a CO2 incubator (at 37° C. and 5% CO2) for 48±4 hours.
A luciferase reagent was prepared by dissolving Luciferase Assay Substrate (hereinafter, referred to as “LAS”) supplied in Luciferase Assay Systems (Promega: Cat# E1500) with Luciferase Assay Buffer (LAB). 5× Cell Culture Lysis Reagent (hereinafter, referred to as “CCLR”) was diluted with water 5-fold to prepare 1×CCLR.
After the incubation for 48±4 hours, the medium in each well was completely removed, and 50 μL of 1×CCLR was dispensed into each well. The 96-well plate was allowed to stand at room temperature for 30 minutes, and then 1×CCLR in each well was used as an assay sample. The luciferase reagent of 100 μL was placed in a tube for chemiluminescence measurement, and 20 μL of the assay sample was added to the tube and mixed with the luciferase reagent to measure chemiluminescence (Relative Luminescence Intensity: RLU) using Tuner Design Luminometer 20/20 (Promega).
The RLU values of the control wells and the RLU values of the sample wells at each concentration were input into an Excel file, and the percentages of RLU values of the sample wells at each concentration with respect to the average of RLU values of the control wells were determined. From these values, a fitted curve was determined by the method of least squares to calculate EC50.

The subject of a further experiment is A549/OPNluc cells. Kind of experiment: WST assay (cell growth inhibition). Format: cell-based. To be noted: Homo sapiens, 48±4 hours, WST-1, read-out: IC50 (concentration for 50% inhibition of cell growth).
Description: as §1, §2
A549/OPNluc cells were suspended in DMEM medium containing 10% fetal calf serum (FCS) and 1% penicillin/streptomycin (P/S) at 3×10^4 cells/mL to obtain a cell suspension, and 100 μL of the cell suspension was dispensed into each well of a 96-well plate. In order to perform the assay in triplicate, 3 wells were prepared for a control group and 3 wells were prepared for each test compound-treated group at each concentration. After the dispensing, the 96-well plate was incubated in a CO2 incubator (at 37° C. and 5% CO2) for 24±4 hours.
The test compound was dissolved in dimethylsulfoxide (DMSO) to obtain a 50 mmol/L solution, and the test compound solution was stored at −80° C. The test compound solution was diluted with DMSO in 2-fold dilution series (usually, in the range of 0.31 mmol/L to 20 mmol/L) to prepare test compound solutions whose concentration varied by two fold for WST assay.
Only DMSO (control) or the diluted test compound (sample) solution was dispensed in an amount of 0.5 μL into each well containing the cell suspension (200-fold dilution). The solution in each well was mixed with a vortex mixer, and then the 96-well plate was incubated in a CO2 incubator (at 37° C. and 5% CO2) for 48±4 hours. Then, 10 μL of Premix WST-1 Reagent (TAKARA BIO INC.) was added to each well. The solution in each well was mixed with a vortex mixer, and then the 96-well plate was incubated at 37° C. and 5% CO2. After 60 minutes or 120 minutes, absorbance values (450 nm) were measured using a microplate reader (Bio-Rad; Benchmark or Thermo Scientific; Varioskan Flash).
The absorbance values of the control wells and the absorbance values of the sample wells at each concentration were input into an Excel file to determine the percentages of absorbance values of the sample wells at each concentration with respect to the average of absorbance values of the control wells. From the determined values, a fitted curve was determined by the method of least squares to calculate IC50.

Molecules are shown by their SMILES. Some results are limits rather than exact numbers.

Take `CCCCCCCCCCCC(=O)C1=C(C)CC(C)(C)OC1=O` [Chemical formula 1]: in experiment [1], the “EC50 value relative to respective IC50 value” is reported as “½” and the EC50 amounted to 24.4 µM. The IC50 in the experiment with A549/OPNluc cells was 129 µM.
In the case of `CCCCCCCCCCCC(=O)C1=C(C)C[C@H](C)NC1=O` [Chemical formula 2], in experiment [1], the “EC50 value relative to respective IC50 value” is given as “½” and the EC50 turned out to be 29.5 µM. The IC50 with A549/OPNluc cells is 59.1 µM.
For `CCCCCCCCCCCC(=O)[C@@H]1C(=O)N[C@@H](C)C[C@H]1C` [Chemical formula 4], in that order: “½”, 19.7 µM and 42.5 µM.
Consider `CCCCCCCCCCCC(=O)C1=C(C)C[C@H](C)OC1=O` [Chemical formula 5], for which, in experiment [1], the EC50 was 63 µM. Moreover, the IC50 in the experiment on A549/OPNluc cells is 129 µM.
The matching figures for `CCCC(=O)C1=C(C)C[C@H](C)OC1=O` [Chemical formula 6]: above 100 µM and above 100 µM.
As to `CCCCCCCC(=O)C1=C(C)C[C@H](C)OC1=O` [Chemical formula 7], the EC50 in experiment [1] is above 100 µM. For the same compound, in the experiment with A549/OPNluc cells, the IC50 is above 100 µM.
For the compound `CCCCCCCCCCCC(=O)C1=C(C)C[C@@H](C)OC1=O` [Chemical formula 8], in experiment [1], the “EC50 value relative to respective IC50 value” is reported as “½” and the EC50 is 55 µM. Also, the IC50 with A549/OPNluc cells was found to be 111 µM.
In the case of `COC(=O)CCCCCCC(=O)C1=C(C)C[C@H](C)OC1=O` [Chemical formula 9, methyl (S)-8-(4,6-dimethyl-2-oxo-5,6-dihydro-2H-pyran-3-yl)-8-Oxooctanoate], the EC50 in experiment [1] is above 100 µM. Besides, in the experiment on A549/OPNluc cells, the IC50 was above 100 µM.
As for `CCCC(=O)C1=C(C)C[C@H](C)NC1=O` [Chemical formula 10, (S)-3-butanoyl-5,6-dihydro-4,6-dimethyl-1H-pyridin-2-one], in experiment [1], the EC50 is 63 µM. In the experiment on A549/OPNluc cells, the IC50 was found to be 110 µM.
As for `CCCCCCCC(=O)C1=C(C)C[C@H](C)NC1=O` [Chemical formula 11, (S)-5,6-dihydro-4,6-dimethyl-3-octanoyl-1H-pyridin-2-one], the EC50 in experiment [1] was above 100 µM. In addition, in the experiment with A549/OPNluc cells, the IC50 was above 100 µM.
For the compound `CCCCCCCCCCCC(=O)[C@@H]1C(=O)O[C@@H](C)C[C@H]1C` [Chemical formula 12], the EC50 in experiment [1] was above 50 µM. Also, the IC50 in the experiment on A549/OPNluc cells was above 50 µM.
For `CCCCCCCCCCCC(=O)[C@H]1C(=O)O[C@H](C)C[C@@H]1C` [Chemical formula 13], the EC50 in experiment [1] is above 50 µM. In addition, in the experiment with A549/OPNluc cells, the IC50 is above 50 µM.
Turning to `CCCCCCCCCCCC(=O)[C@H]1C(=O)OC(C)(C)C[C@@H]1C` [Chemical formula 14], the EC50 in experiment [1] came out at 29.5 µM. The IC50 in the experiment with A549/OPNluc cells was 54.1 µM.
For the compound `CCCCCCCCCCCC(O)[C@H]1C(=O)O[C@@H](C)C[C@@H]1C` (stereo partly drawn) [Chemical formula 15], in experiment [1], the “EC50 value relative to respective IC50 value” was “½” and the EC50 stood at 43.4 µM. For the same compound, the IC50 in the experiment with A549/OPNluc cells was found to be 88 µM.
On to `CCCCCCCCCCC/C(OC(C)=O)=C1\C(=O)O[C@@H](C)C[C@@H]1C` [Chemical formula 16], for which, in experiment [1], the “EC50 value relative to respective IC50 value” is “½” and the EC50 is 31.1 µM. In addition, the IC50 in the experiment on A549/OPNluc cells was above 100 µM.
